The values below come from patent publication US8992945B2, “Supramacromolecular polymer complexes providing controlled nitric oxide release for healing wounds” (University of Toronto, priority 2007, dated 2015).

Where only a bound is given, the exact number is not on record here.

Data set [1] can be described thus: Kinetics of NO decomposition from RSNOs in aqueous medium (UV-Vis absorbance at 545 nm). Format: physicochemical. The conditions noted are these: for NO decomposition rate (order of decay slopes): 0.1 N HCl, 22° C., similar initial solution concentrations, FIG. 5. As to the method: In this invention, GSHEE and phytochelatin are being used for the first time as NO donors. […] Their stability in aqueous medium was explored using the UV-Vis Spectrophotometer. Solutions of all RSNOs for this stability study were synthesized according to Example 1. Their decomposition kinetics in these solutions at room temperature was obtained from the time dependent absorbance changes at 545 nm in time intervals of 10 min.
A good linearity is obtained for all three curves, from the decay slopes, it can be seen that NO decomposition rate decreases in the order of GSNO>S-Nitroso-GSHEE>S-nitroso-PC5.

For data set [2] the following is noted: NO endogenously synthesized by vascular endothelial cells; cited from earlier work.

With `N[C@@H](CCC(=O)N[C@@H](CSN=O)C(=O)NCC(=O)O)C(=O)O` [GSNO, S-nitrosoglutathione], the “NO decomposition rate (order of decay slopes)” value in data set [1] was “GSNO>S-Nitroso-GSHEE>S-nitroso-PC5”. Besides, the “NO dissociation from GSNO” value in data set [1] (acidic and neutral medium, room condition (22° C.), FIG. 1) is on record as “continuously dissociates”.

Consider `[N]=O` [NO, nitric oxide], for which the biological half life in data set [2] is listed as not above 5 sec.

`CCOC(=O)CNC(=O)C(CSN=O)NC(=O)CCC(N)C(=O)O` (stereo not shown) [S-Nitroso-GSHEE]: the “NO decomposition rate (order of decay slopes)” value in data set [1] is reported as “GSNO>S-Nitroso-GSHEE>S-nitroso-PC5”.
